Data: the NIST ThermoML archive (doi:10.1016/j.fluid.2013.06.021)

Assay: xn = mol fraction of the nth substance listed
Settings: 101 kPa, Liquid; for speed of sound: Sing-around technique in a fixed-path interferometer; for mass density: Vibrating tube method; for viscosity: Capillary tube (Ostwald / Ubbelohde) method

CCCCOCCO [2-butoxyethan-1-ol] + CCC(C)O
Settings | mass density [kg/m3] | speed of sound [m/s] | viscosity [mPa·s]
293.15 K, x1 = 0.0517 | 813.24 | 1236.5 | –
293.15 K, x1 = 0.1011 | 819.25 | 1242 | –
293.15 K, x1 = 0.152 | 825.25 | 1247.7 | –
293.15 K, x1 = 0.2027 | 831.03 | 1253.1 | –
293.15 K, x1 = 0.2541 | 836.67 | 1258.4 | –
293.15 K, x1 = 0.3092 | 842.49 | 1264 | –
293.15 K, x1 = 0.4012 | 851.78 | 1272.9 | –
293.15 K, x1 = 0.5011 | 861.21 | 1282.2 | –
293.15 K, x1 = 0.6065 | 870.53 | 1291.4 | –
293.15 K, x1 = 0.7054 | 878.73 | 1299.8 | –
293.15 K, x1 = 0.806 | 886.59 | 1307.9 | –
293.15 K, x1 = 0.8558 | 890.31 | 1311.8 | –
293.15 K, x1 = 0.8999 | 893.54 | 1315.3 | –
293.15 K, x1 = 0.9516 | 897.19 | 1319.3 | –
298.15 K, x1 = 0.0517 | 809.099 | 1218.9 | 2.932
298.15 K, x1 = 0.1011 | 815.491 | 1224.3 | 2.809
298.15 K, x1 = 0.152 | 821.091 | 1229.9 | 2.713
298.15 K, x1 = 0.2027 | 826.863 | 1235.3 | 2.66
298.15 K, x1 = 0.2541 | 832.498 | 1240.7 | 2.607
298.15 K, x1 = 0.3092 | 838.314 | 1246.4 | 2.586
298.15 K, x1 = 0.4012 | 847.585 | 1255.4 | 2.563
298.15 K, x1 = 0.5011 | 857.012 | 1264.8 | 2.583
298.15 K, x1 = 0.6065 | 866.34 | 1274.2 | –
298.15 K, x1 = 0.6066 | – | – | 2.598
298.15 K, x1 = 0.7054 | 874.537 | 1282.5 | 2.653
298.15 K, x1 = 0.806 | 882.398 | 1290.7 | 2.711
298.15 K, x1 = 0.8558 | 886.109 | 1294.6 | 2.747
298.15 K, x1 = 0.8999 | 889.334 | 1298.1 | 2.796
298.15 K, x1 = 0.9516 | 892.99 | 1302.2 | 2.824
303.15 K, x1 = 0.0517 | 804.88 | 1202 | 2.441
303.15 K, x1 = 0.1011 | 810.88 | 1207 | 2.357
303.15 K, x1 = 0.152 | 816.86 | 1212.3 | 2.319
303.15 K, x1 = 0.2027 | 822.62 | 1217.7 | 2.283
303.15 K, x1 = 0.2541 | 828.26 | 1223 | 2.249
303.15 K, x1 = 0.3092 | 834.08 | 1228.6 | 2.22
303.15 K, x1 = 0.4012 | 843.34 | 1237.7 | 2.224
303.15 K, x1 = 0.5011 | 852.78 | 1247.4 | 2.283
303.15 K, x1 = 0.6065 | 862.11 | 1257.1 | –
303.15 K, x1 = 0.6066 | – | – | 2.342
303.15 K, x1 = 0.7054 | 870.3 | 1265.5 | 2.419
303.15 K, x1 = 0.806 | 878.16 | 1273.8 | 2.488
303.15 K, x1 = 0.8558 | 881.88 | 1277.7 | 2.53
303.15 K, x1 = 0.8999 | 885.1 | 1281.2 | 2.562
303.15 K, x1 = 0.9516 | 888.76 | 1285.1 | 2.606
308.15 K, x1 = 0.0517 | 800.58 | 1183 | 2.081
308.15 K, x1 = 0.1011 | 806.58 | 1188.7 | 2.031
308.15 K, x1 = 0.152 | 812.55 | 1194.5 | 1.994
308.15 K, x1 = 0.2027 | 818.33 | 1200 | 1.97
308.15 K, x1 = 0.2541 | 823.96 | 1205.6 | 1.944
308.15 K, x1 = 0.3092 | 829.79 | 1211.4 | 1.935
308.15 K, x1 = 0.4012 | 839.07 | 1220.6 | 1.935
308.15 K, x1 = 0.5011 | 848.49 | 1230.3 | 1.964
308.15 K, x1 = 0.6065 | 857.81 | 1240 | –
308.15 K, x1 = 0.6066 | – | – | 1.998
308.15 K, x1 = 0.7054 | 866.02 | 1248.6 | 2.064
308.15 K, x1 = 0.806 | 873.9 | 1256.7 | 2.112
308.15 K, x1 = 0.8558 | 877.63 | 1260.8 | 2.144
308.15 K, x1 = 0.8999 | 880.86 | 1264.2 | 2.172
308.15 K, x1 = 0.9516 | 884.53 | 1268.2 | 2.196
313.15 K, x1 = 0.0517 | 796.19 | 1164.9 | –
313.15 K, x1 = 0.1011 | 802.19 | 1170.6 | –
313.15 K, x1 = 0.152 | 808.15 | 1176.6 | –
313.15 K, x1 = 0.2027 | 813.93 | 1182.3 | –
313.15 K, x1 = 0.2541 | 819.59 | 1188 | –
313.15 K, x1 = 0.3092 | 825.43 | 1193.9 | –
313.15 K, x1 = 0.4012 | 834.71 | 1203.5 | –
313.15 K, x1 = 0.5011 | 844.14 | 1213.3 | –
313.15 K, x1 = 0.6065 | 853.46 | 1223.1 | –
313.15 K, x1 = 0.7054 | 861.68 | 1231.8 | –
313.15 K, x1 = 0.806 | 869.59 | 1240.2 | –
313.15 K, x1 = 0.8558 | 873.33 | 1244.1 | –
313.15 K, x1 = 0.8999 | 876.56 | 1247.6 | –
313.15 K, x1 = 0.9516 | 880.24 | 1251.6 | –
